Results reported in patent US5925667A, “Pyrrolidine derivative, anti-ulcer drug, and antibacterial drug” (Shiseido Co., Ltd., priority 1997, dated 1999).

How the values were obtained:
stress ulcer = test: WIS: Restraint and Water Immersion Stress-Induced Ulcer Inhibition Test; type: in vivo, male Crj:SD or Slc:SD rats; details: rat; for inhibition in vivo at 100 mg/kg: 100 mg/kg oral, 7 h water immersion stress, read-out: ulcer formation inhibitory rate (WIS)
Description: WIS: Restraint and Water Immersion Stress-Induced Ulcer Inhibition Test
The degree of inhibition of the stress ulcer formation is tested.
Male Crj:SD or Slc:SD rats (6 to 7-week-old) were fasted overnight, but allowed free access to water. Each group has 5 to 8 of these rats. The sample compound was dissolved or suspended in an aqueous solution of 0.3% sodium carboxymethylcellulose or 0.05% Tween 80 and then was orally administered (100 mg/10 ml/kg. To a control group, the vehicle was administered. 10 minutes later, the rats were placed in a stress cage and immersed to the level of xipfoid process in a water bath (21° C.) for 7 hours. At the end of the stress, the rats were sacrificed by inhalation of ether or carbon dioxide. Then, the stomach of each was removed, inflated by injecting 10 ml of 5% formalin neutral buffer solution, and immersed in 1% formalin neutral buffer solution for 30 minutes or more to be fixed. The stomach was incised along the greater curvature and then the length of each erosion in the glandular portion was determined under dissecting microscope. The sum of the length of erosions per stomach was defined as ulcer index (UI).
The effect obtained when 100 mg/kg of the sample compound had been administered was expressed as ulcer formation inhibitory rate (%) as follows:
ulcer formation inhibitory rate (%)=(1-(UI in sample group/UI in control group))×100

[1] = test system: isolated gastric fundic gland; test: CAP: Acid Secretion Inhibition Test In Vitro ([14C]-aminopyrine uptake test); type: cell-based, male Japanese White rabbit; details: Oryctolagus cuniculus; final concentration 10^-5 M, histamine 10^-5 M; read-out: acid secretion inhibitory rate (CAP)
Description: CAP: Acid Secretion Inhibition Test In Vitro
The acid secretion inhibitory activity in a cell level is studied. It can also be used for studying the mechanism of the effect.
ii-a) Preparation of isolated gastric fundus gland suspension
First, an isolated gastric fundic gland sample was prepared. Namely, a male Japanese White rabbit (2.5 to 3 kg) was anesthetized to death with Nembutal™ and then the abdomen was incised. Immediately thereafter, the stomach was removed and, after its pyloric and cardiac antrum were severed, incised along its greater curvature into two sheets. The gastric contents adhering to the mucosal surface was washed out with ice-cooled PBS (-) and then carefully washed therein. The gastric wall was spread on a cork board with its mucosal surface facing up and the feed and mucus thereon were completely removed with sterile gauze. The mucosa was separated therefrom by a spatula and then collected in ice-cooled PBS (-). After being washed twice with PBS (-), the mucosa was minced into 2-3 mm^3 pieces by scissors. These pieces were further washed twice with a nutrient solution. The nutrient solution comprises 132.4 mM of NaCl, 5.4 mM of KCl, 5 mM of Na2 HPO4.12H2 O, 1 mM of NaH2 PO4.2H2,
1.2 mM of MgSO4, 1 mM of CaCl2, 25 mM of HEPES, 2 mg/ml of glucose, and 1 mg/ml of BSA.
Into 70 ml of the nutrient solution containing 1 mg/ml of collagenase, minced mucosal pieces were dispersed and intensely stirred in a conical flask with a stirrer at 37° C. for 40 to 60 minutes. During this period, 100% O2 was sprayed on the nutrient solution surface and the pH was appropriately measured such that it was immediately adjusted to pH 7.4, when the value was therebelow, with a base. The nutrient solution was added to the reaction solution so as to attain the total amount of about 200 ml. After being filtered through a mesh, the suspension was divisionally introduced into 50 ml centrifuge tubes and left for 15 minutes such that gastric fundic gland was deposited. The supernatant was repeatedly removed by an aspirator, dispersed in the nutrient solution, and then left such that the gastric fundic gland was washed three times. At this time, without using a pipette, the suspension was alternately introduced into two centrifuge tubes so as to effect dispersion. The number of cells was counted under microscope and adjusted to 1.6×10^6 cells/ml.
ii-b) [^14 C]-aminopyrine uptake test.
Then, [^14 C]-aminopyrine uptake test was performed. After an Eppendorf tube was weighed, 10 μl (final concentration: 10^-5 M) of histamine dissolved in the above-mentioned nutrient solution, 10 μl (final concentration: 10^-5 M) of the test compound dissolved in DMSO, and 10 μl (final concentration: 0.05 μCi/ml) of [^14 C]-aminopyrine diluted with the nutrient solution were introduced therein and then 970 μl of the isolated gastric fundic gland suspension prepared above was added thereto. Subsequently, this mixture was shaken at 37° C. for 40 minutes at 125 cycles/minute. After being centrifuged for 30 seconds, 200 μl of its supernatant was collected into a mini-vial, while the rest was removed by an aspirator. The gland pellet was completely dried as the tube with its lid being opened was kept for one night in a drying oven at 80° C. and then the lid was closed and the weight was determined at room temperature. Then 100 μl of 1N KOH was added thereto and the tube with its lid being closed was treated at 60° C. for 1 to 2 hours so as to dissolve the pellet. Then, the contents thereof were transferred to a mini-vial. Into the mini-vial containing the supernatant or gland pellet, 4 ml of Atomlite™ was added and then the radioactivity was measured by a liquid scintillation counter. Here, after the radioactivity of the gland pellet was corrected by using a sample in which 20 mM of NaSCN was added so as to cancel the hydrogen ion concentration gradient, the integration ratio of aminopyrine specifically trapped by the gland pellet was calculated. […]

Slc:ICR mice = test system: Slc:ICR mice; design: species or system male Slc:ICR mice; details: mouse, in vivo
Description: AT: Single Dose Toxicity Pretest
Male Slc:ICR mice (5-week-old) were used. Each group has 3 to 5 mice and each mouse was fasted, but allowed free access to water, for 4 to 5 hours from 9 a.m. in the test day. Then, 2,000 mg/10 ml/kg of the sample compound dissolved or suspended in an aqueous solution of 0.5% sodium carboxymethyl cellulose was orally administered thereto. To a control, only the vehicle was administered. […] The body weight was measured before and after the fasting as well as at the same time everyday. The dead animals were immediately subjected to autopsy and their organs were observed by naked eyes. Also, the living animals were sacrificed with ether or carbon dioxide one week after the administration and then their organs were observed by naked eyes.
The toxicity at the single dose of 2,000 mg/kg of the sample compound was expressed as being classified into 5 levels.
5: Mortality rate is 0%; no toxicity is found at all both in behavior and organs.
4: Mortality rate is 0%; while no toxicity is found in organs, slight toxicity is observed in behavior or body weight increase.
3: While there is a dead animal (though not all the animals are dead), no toxicity is found in organs.
2: Regardless of whether there is a dead animal or not, toxicity is found in organs.
1: All the animals are dead.

[2] = MTT: Cell Damaging and Protecting Effect Test; type: cell-based, male Japanese White rabbit; details: rabbit, gastric mucosa cells, final concentration 10^-4 M, smaller value is better, read-out: cell damaging rate (MTT)
From the text: MTT: Cell Damaging and Protecting Effect Test
It is confirmed that there is no toxicity in cell level. Those having a toxicity in cell level are inappropriate as an anti-ulcer drug.
A male Japanese White rabbit (2.5 to 3 kg) was anesthetized to death by Nembutal™ and, immediately thereafter, its stomach was removed. The greater curvature of the stomach was incised so as to remove the stomach contents therefrom. After the mucosal surface was washed with HBSS (Hanks' Balanced Salt Solution), the stomach in ice-cooled HBSS was transferred to a laboratory. Then, after the pyloric antrum was removed, the gastric corpus mucosa was separated by a spatula and then minced into 2 to 3 mm^3 pieces in BME (Basal Medium Eagle). Thereafer, these pieces were shaken at 120 to 130 cycles/minute for 15 minutes at 37° C. in BME 60 ml containing 280 U/ml of dispase and 30 to 50 U/ml of collagenase. Here, the concentration of collagenase was appropriately changed for each lot in view of the state of cells. The pieces were washed twice with EBSS (Earle's Balanced Salt Solution) containing 1 mM of EDTA and then shaken in MEM (Minimum Essential Medium) containing 1 mM of EDTA at 37° C. for 5 minutes. Subsequently, they were shaken in the dispase and collagenase having the same concentrations as those mentioned above for 15 minutes so as to remove the supernatant and then further shaken at 37° C. for 50 to 60 minutes at 120 to 130 cycles/minute. Then, after being washed twice with HBSS, Ham F12 containing 2% of Ultrocer G™ was used to attain the concentration of 1×10^6 cells/ml. Thus formed suspension was dispensed in each well of a 96-well plate by 200 μl. The plate was incubated in the atmosphere composed of 5% CO2 and 95% air at 37° C. for three days so as to attain a confluent state and then subjected to MTT assay.
The sample compound was dissolved in DMSO so as to attain a concentration of 10^-2 M and then diluted with HBSS containing 2% of Ultrocer G™ so as to attain a final concentration of 10^-4 M. To each group, which 8 wells were used for, 10 μl of MTT reagent was added immediately after 100 μl of the medium in each well was exchanged for same volume of the resulting solution of the sample compound. After being incubated in an atmosphere composed of 5% CO2 and 95% air at 37° C. for 4 hours, thus formed solution was centrifuged and then its supernatant was discarded. Subsequently, 100 μl of 100% ethanol was added to the residue so as to dissolve MTT formazan. Then, the absorbance (OD: 570 to 630) was measured by a microplate reader. This method utilizes a phenomenon in which MTT is changed to MTT formazan only by mitochondria of living cells so as to change color.
The cell damaging or cell protecting effect of the sample compound at the final concentration of 10^-4 M was expressed as cell damaging rate (%) as follows:
cell damaging rate (%)=(1-(absorbance in sample group/absorbance in control group))×100
Accordingly, the smaller value is better in the cell damaging rate.

## CCN1CCCC1CNC(=O)c1ccc(OC/C=C(/C)CCC=C(C)C)cc1 (stereo not shown) [Example 4, 1-ethyl-2-(4-neryloxybenzoylaminomethyl)pyrrolidine]
Stress ulcer
  inhibition in vivo at 100 mg/kg: 68%
[1]
  inhibition at 10 µM: 100%
Slc:ICR mice
  toxicity at single dose (AT), 5 levels: 5

## CCN1CCCC1CNC(=O)c1cc(OCC=C(C)C)cc(OCC=C(C)C)c1 (stereo not shown) [Example 8, 1-ethyl-2-(3,5-diprenyloxybenzoylaminomethyl)pyrrolidine]
Stress ulcer
  inhibition in vivo at 100 mg/kg: 81%
[1]
  inhibition at 10 µM: 100%
Slc:ICR mice
  toxicity at single dose (AT), 5 levels: 5

## CCN1CCCC1CNC(=O)c1ccccc1SC/C=C(\C)CCC=C(C)C (stereo not shown) [Example 14, 1-ethyl-2-(2-geranylthiobenzoylaminomethyl)pyrrolidine]
Stress ulcer
  inhibition in vivo at 100 mg/kg: 81%
Stress ulcer; in vivo
  anti-ulcer effect (in words): the effect has been maintained
[2]
  cytotoxicity at 4 h, 100 µM: 27%
[1]
  inhibition at 10 µM: 98.1%

## CCN1CCCC1CNC(=O)c1ccc(OC/C=C(\C)CCC=C(C)C)c(OC)c1 (stereo not shown) [Example 16, 1-ethyl-2-(4-geranyloxy-3-methoxybenzoylaminomethyl)pyrrolidine]
Stress ulcer
  inhibition in vivo at 100 mg/kg: 72%
[1]
  inhibition at 10 µM: 99.8%
Slc:ICR mice
  toxicity at single dose (AT), 5 levels: 4

## CCN1CCCC1CNC(=O)c1cccc(OC)c1OC/C=C(\C)CCC=C(C)C (stereo not shown) [Example 17, 1-ethyl-2-(2-geranyloxy-3-methoxybenzoylaminomethyl)pyrrolidine]
Stress ulcer
  inhibition in vivo at 100 mg/kg: 82%
[2]
  cytotoxicity at 4 h, 100 µM: 22%
[1]
  inhibition at 10 µM: 100%

## CCN1CCCC1CNC(=O)c1cc(OC)c(OC)c(OCC=C(C)C)c1 (stereo not shown) [Example 23, 1-ethyl-2-(3,4-dimethoxy-5-prenyloxybenzoylaminomethyl)pyrrolidine]
Stress ulcer
  inhibition in vivo at 100 mg/kg: 79%
[2]
  cytotoxicity at 4 h, 100 µM: -3%
[1]
  inhibition at 10 µM: 73.1%
